What was measured:
[1] = tested on: tumorsphere-derived cells; test: Sphere forming assay, tumorsphere-derived cells; type: cell-based, mouse
Source text: (§1) To determine whether Wnt/β-catenin signaling was required for BTIC and mammary epithelial stem and progenitor cell function in vitro, we examined the effect of agonists and antagonists of Wnt/β-catenin signaling on sphere formation, which when performed under appropriate conditions is thought to be an attribute of stem/progenitor cells and TICs, [38], [39], [40]. We seeded dispersed cells dissociated from mammospheres and tumorspheres into media containing either Dkk1 or Wnt3a at concentrations previously shown to be sufficient to inhibit or activate the Wnt/β-catenin signaling pathway, respectively, [42]. Dkk1 is a secreted protein inhibitor [43], and Wnt3A is a stimulatory ligand of Wnt/β-catenin signaling. […] We used the small molecule BIO to inhibit GSKβ, a negative regulator of Wnt/β-catenin signaling.
(§2) We similarly tested pharmacological agents, which target Wnt/β-catenin signaling (PKF118–310, PKF115–584, CGP049090), for their affect on sphere formation. These inhibitors are specific antagonists of Wnt/β-catenin signaling that interrupt the […] step in pathway activation, namely the interaction between β-catenin and Tcf/Lef transcription factors. We seeded freshly isolated primary tumor cells and primary mammary epithelial cells, as well as mammosphere- and tumorsphere-derived cells into medium containing various concentrations of the inhibitors.
(§3) The #3 and #4 mammary glands from virgin female FVB/N mice (6–8 weeks old) and mammary tumors were isolated as described previously, [56]. Mammospheres and tumorspheres were established from the bulk primary mammary epithelial and tumor cell population respectively as described previously. Serial passage of the mammospheres and tumorspheres was accomplished by mechanically dissociated the cells from spheres using titruation and reseeding the dispersed cells into fresh medium. Passage of the spheres was limited to 3–5 serial passages before the cells were harvested and RNA prepared. To induce a differentiation program in mammospheres in vitro, intact mammospheres were collected by centrifugation, the spheres were dissociated and the dispersed cells were plated at a density of 150,000 cells/ml on rat-tail collagen (Roche, Basel, Switzerland) coated 60 mm Petri dishes, [59]. The cells were incubated for a week before they were harvested and used to prepare cellular RNA for analyses.
(§4) Sphere and colony forming assays were completed as previously described. Dkk1 and Wnt3A were obtained from RnDSystems (Minneapolis, Minnesota). PKF118–310, PKF115–584 and CGP049090 were a gift from Novartis (Basel, Switzerland).
(§5) The 50% inhibitory concentration (IC50) of compounds was calculated using GraphPad Prism5 software. X-axis values were X = Log(X) transformed and then fit with a dose-response curve. The DMSO vehicle control was included to aid IC50 calculation and was assigned a 1 nM concentration of the tested compound.

[2] = tested on: mammosphere-derived cells; test: Sphere forming assay, mammosphere-derived cells; type: cell-based, mouse
Source text: as §1, §2, §3, §4, §5

[3] = tested on: primary tumor cells (BTIC); test: Ex vivo treatment of primary tumor cells and transplant into syngeneic mice; type: in vivo, mouse
Procedure: We incubated freshly isolated primary tumor cells under sphere forming conditions in presence of vehicle (DMSO) or PKF118–310 (1 µM or 2.5 µM concentrations). After 4 days the spheres were collected, dissociated and equal numbers (5,000) of viable PKF118–310- and vehicle-treated cells were injected sub-cutaneously into the syngeneic mice. Upon endpoint, when the tumor in any individual mouse reached 10% of its weight (∼6 weeks) all the animals were sacrificed and the tumors harvested.
as §4

[4] = tested on: primary mammary epithelial cells; test: Sphere forming assay, primary mammary epithelial cells; type: cell-based, mouse
Source text: as §2
The #3 and #4 mammary glands from virgin female FVB/N mice (6–8 weeks old) and mammary tumors were isolated as described previously, [56]. Mammospheres and tumorspheres were established from the bulk primary mammary epithelial and tumor cell population respectively as described previously. Serial passage of the mammospheres and tumorspheres was accomplished by mechanically dissociated the cells from spheres using titruation and reseeding the dispersed cells into fresh medium. Passage of the spheres was limited to 3–5 serial passages before the cells were harvested and RNA prepared. […]

[5] = tested on: primary mammary epithelial cells; test: Secondary sphere-forming assay (self-renewal), primary mammary epithelial cells; type: cell-based, mouse; conditions: 1 µM during 4-day primary sphere assay; secondary spheres in medium lacking inhibitor
Source text: (§6) To learn whether the inhibitory compounds affected the self-renewal of sphere-forming cells, we investigated the capacity of cells exposed to the compounds to serially form spheres. In short, dispersed primary mammary epithelial cells and primary tumor cells were exposed to PKF118–310 during a 4-day primary sphere-forming assay. The spheres that formed were counted, the cells dissociated from the spheres and the dispersed cells plated to form secondary spheres in fresh medium lacking the inhibitors.

primary tumor cells [6] = test: Secondary sphere-forming assay (self-renewal), primary tumor cells; type: cell-based, mouse; conditions: 1 µM during 4-day primary sphere assay; secondary spheres in medium lacking inhibitor
Source text: as §6

BTICs in tumors = test: Secondary transplant of tumor cells harvested from treated mice; type: in vivo; conditions: 10,000 cells/mouse from treated mice
Source text: The principal objective of our experiments was to learn whether inhibition of Wnt/β-catenin signaling targeted BTICs in tumors. […] We reasoned that if PKF118–310 selectively targeted BTICs in vivo, viable cells isolated from PKF118–310 treated tumor-bearng hosts would engraft and elicit tumor growth less efficiently relative to their vehicle-treated counterparts. To this end, we transplanted tumor cells by injecting them sub-cutaneously (n = 20, PKF118–310-treated; n = 20, vehicle-treated) between the shoulders of syngeneic mice (10,000 cells/mouse) and measured tumor latency in the PKF118–310-treated and vehicle-treated transplant cohorts. […]
Freshly isolated primary tumor (100,000) cells were suspended in 50% Matrigel (BD, Franklin Lakes, New Jersey), 45% phosphate buffered saline pH7.4 (PBS) and 5% fetal bovine serum (FBS) [Invitrogen, Carlsbad, California], and the cells were injected subcutaneously between the shoulders into syngeneic 6–8 week-old female mice (FVB/N strain). Mice were monitored by palpation weekly for the occurrence of tumors. […] Tumor volume was measured twice weekly. […] Viable tumor cells (assessed by TrypanBlue staining) from vehicle- and compound-treated mice were isolated as described above and 10,000 cells were transplanted subcutaneously into syngeneic mice (n = 20, treated; n = 20, untreated).

[7] = tested on: pre-established breast tumors; test: In vivo compound administration to tumor-bearing mice; design: species or system mouse
Source text: To determine whether PKF118–310 affected the growth of pre-established breast tumors and reduced BTIC frequency in vivo, we transplanted primary breast tumor cells into syngeneic mice and treated these hosts with PKF118–310 after the tumors had reached a volume of ∼1 cm^3. […] After treatment ceased the tumors in mice administered the vehicle were ∼3 fold larger than those in PKF118–310-treated mice (Fig. 4B, *p<0.05).
To uncover potential mechanisms whereby the compound halted tumor growth, we prepared sections from the tumors of both cohorts and stained them with Hematoxylin and Eosin (H&E). […] In some cases the cell-free areas contained material, characteristic of milk protein secretions. […] We also examined whether inhibition of tumor growth was accomplished by a reduction in cell proliferation and/or induction of apoptosis. We stained tumor sections for markers of proliferation (Ki67) and apoptosis (cleaved caspase-3 and TUNEL). We observed a significant decrease in the frequency of Ki67 positive tumor cell nuclei in the PKF118–310 treated tumor-bearing mice compared to their vehicle-treated counterparts (Fig. 4D&E). […] Tumors from PKF118–310 treated mice comprised approximately 3–4-fold fewer Ki67-positive cells than tumors from vehicle-treated mice. We similarly simultaneously stained the tumor sections with antibodies to a luminal lineage marker (CK8) and with those to each of two myoepithelial lineage markers (CK14 and alpha-smooth muscle actin [alpha-SMA). The vast majority of the cells in sections prepared from tumors of the vehicle-treated mice expressed only the luminal lineage marker in keeping with previous findings (data not shown). Tumor sections prepared from tumors of the mice administered PKF118–310 also only expressed the luminal lineage marker.
To learn whether administration of PKF118–310 to tumor-bearing mice inhibited Wnt/β-catenin signaling in tumors, we measured the abundance of Wnt/β-catenin target gene transcripts in the tumor cells.
Freshly isolated primary tumor (100,000) cells were suspended in 50% Matrigel (BD, Franklin Lakes, New Jersey), 45% phosphate buffered saline pH7.4 (PBS) and 5% fetal bovine serum (FBS) [Invitrogen, Carlsbad, California], and the cells were injected subcutaneously between the shoulders into syngeneic 6–8 week-old female mice (FVB/N strain). Mice were monitored by palpation weekly for the occurrence of tumors. When tumors reached roughly 1 cm^3, the mice were administered either the vehicle (0.1% DMSO) or PKF118–310 (0.85 mg/kg) dissolved in 0.1% DMSO by intra-tumoral injection for 5 consecutive days followed by a 2-day rest period before compound administration was repeated once. Tumor volume was measured twice weekly. At the end of the 12-day treatment cycle the mice were sacrificed and their tumors harvested for analysis. […] Viable tumor cells (assessed by TrypanBlue staining) from vehicle- and compound-treated mice were isolated as described above and 10,000 cells were transplanted subcutaneously into syngeneic mice (n = 20, treated; n = 20, untreated).
Paraformaldehyde fixed tumor fragments were embedded in paraffin, sectioned and stained with H&E. The tumor sections were de-paraffinized and rehydrated in ethanol (100-70% gradient) before immunofluorescent analysis. Antigen retrieval was performed in Antigen Unmasking Solution (Vector, Burlingame, California). Slides were blocked with 3% normal goat serum (Dako, Denmark) and incubated with primary antibodies for 2 hours at room temperature (Ki67, 1∶200 [ABCAM, Cambridge, Massachusetts]. Secondary antibodies (Invitrogen) were used at a 1∶200 dilution for 1 hour at room temperature.

primary tumor cells [8] = test: Sphere forming assay, primary tumor cells; type: cell-based, mouse; conditions: for IC50: primary tumor cells; for selectivity (IC50 MMS/IC50 TMS) for primary tumor cells over primary mammary epithelial cells: sphere forming assays
Source text: as §2, §3, §4, §5

[9] = 0.85 mg/kg, qRT-PCR, versus vehicle

Molecule	effect on sphere formation [1]	effect on sphere formation [2]	IC50 [1] [nM]	IC50 [4] [nM]	IC50 [2] [nM]	IC50 (primary tumor cells [8]) [nM]	selectivity (IC50 MMS/IC50 TMS) for primary tumor cells over primary mammary epithelial cells (primary tumor cells [8])	other results
O=C1Nc2cc(Br)ccc2/C1=C1/Nc2ccccc2/C1=N\O [BIO]	stimulated sphere formation	stimulated sphere formation	–	–	–	–	–	–
Cn1ncnc2c(=O)n(C)c(=O)nc1-2 [PKF118–310]	–	–	940	1540	540	580	2–3 fold	tumor latency versus vehicle-treated cells ([3]; cells incubated with 1 µM for 4 days): longer latency; tumor size at endpoint, smaller than vehicle-treated ([3]; cells incubated with 1 µM for 4 days, 5,000 viable cells s.c.): approximately 50%; tumor mass at endpoint ([3]; cells incubated with 1 µM for 4 days, 5,000 viable cells s.c., ∼6 weeks, control 0.49 g): 0.26 g; tumor initiation after transplant ([3]; cells incubated with 2.5 µM for 4 days, 5,000 viable cells s.c., ∼6 weeks): failed to initiate tumor growth in any of the host mice; secondary mammosphere formation relative to vehicle [5]: at the same frequency as the vehicle-treated mammary epithelial cells; reduction of capacity to form secondary spheres relative to vehicle (primary tumor cells [6]): ~10 fold; mice remaining tumor free (BTICs in tumors; 12 week follow-up): 85%; mice forming tumor grafts (BTICs in tumors; vehicle 20/20): 3 of 20; effect on tumor growth ([7]; 0.85 mg/kg intra-tumoral, 12 days (5 on, 2 off, 5 on)): inhibited tumor growth; tumor regression during treatment ([7]; 0.85 mg/kg, 12 days): did not induce significant tumor regression; abundance of axin2 transcripts in tumors [7, 9]: significantly lower; abundance of cyclin D1 transcripts in tumors [7, 9]: significantly lower; tumor volume after treatment, vehicle larger than treated ([7]; 0.85 mg/kg, t = 12 days): ~3 fold; Ki67-positive cells, fewer than in vehicle tumors ([7]; 0.85 mg/kg, tumor sections): 3–4 fold; cleaved caspase-3 or TUNEL staining (apoptosis) in tumors ([7]; 0.85 mg/kg, tumor sections): did not observe any positive staining
PKF115–584	–	–	1340	2050	1390	310	6–7 fold	–
Dkk1: secreted protein inhibitor of Wnt/β-catenin signaling, from RnDSystems (protein, UniProt O94907 32-266, looked up) Dickkopf-related protein 1: TLNSVLNSNAIKNLPPPLGGAAGHPGSAVSAAPGILYPGGNKYQTIDNYQPYPCAEDEECGTDEYCASPTRGGDAGVQICLACRKRRKRCMRHAMCCPGNYCKNGICVSSDQNHFRGEIEETITESFGNDHSTLDGYSRRTTLSSKMYHTKGQEGSVCLRSSDCASGLCCARHFWSKICKPVLKEGQVCTKHRRKGSHGLEIFQRCYCGEGLSCRIQKDHHQASNSSRLHTCQRH	reduced sphere formation	reduced sphere formation	–	–	–	–	–	–
Wnt3A: stimulatory ligand of Wnt/β-catenin signaling, from RnDSystems (protein, UniProt P56704 19-352, looked up) Protein Wnt-3a: SYPIWWSLAVGPQYSSLGSQPILCASIPGLVPKQLRFCRNYVEIMPSVAEGIKIGIQECQHQFRGRRWNCTTVHDSLAIFGPVLDKATRESAFVHAIASAGVAFAVTRSCAEGTAAICGCSSRHQGSPGKGWKWGGCSEDIEFGGMVSREFADARENRPDARSAMNRHNNEAGRQAIASHMHLKCKCHGLSGSCEVKTCWWSQPDFRAIGDFLKDKYDSASEMVVEKHRESRGWVETLRPRYTYFKVPTERDLVYYEASPNFCEPNPETGSFGTRDRTCNVSSHGIDGCDLLCCGRGHNARAERRREKCRCVFHWCCYVSCQECTRVYDVHTCK	stimulated sphere formation	stimulated sphere formation	–	–	–	–	–	–

Source: publication PMC3314694, “Small Molecule Antagonists of the Wnt/Beta-Catenin Signaling Pathway Target Breast Tumor-Initiating Cells in a Her2/Neu Mouse Model of Breast Cancer” (PLoS ONE, 2012)
